From ChEMBL document CHEMBL1221163, “Monocarboxylate transporter MCT1 is a target for immunosuppression” (Nat Chem Biol, 2005) come the findings set out here.

The source made the active and inactive calls. No cut-off for these calls is given here.

For experiment [1], the target named is T1, Monocarboxylate transporter 1 (Homo sapiens, UniProt P53985).
T1 sequence (P53985 whole entry): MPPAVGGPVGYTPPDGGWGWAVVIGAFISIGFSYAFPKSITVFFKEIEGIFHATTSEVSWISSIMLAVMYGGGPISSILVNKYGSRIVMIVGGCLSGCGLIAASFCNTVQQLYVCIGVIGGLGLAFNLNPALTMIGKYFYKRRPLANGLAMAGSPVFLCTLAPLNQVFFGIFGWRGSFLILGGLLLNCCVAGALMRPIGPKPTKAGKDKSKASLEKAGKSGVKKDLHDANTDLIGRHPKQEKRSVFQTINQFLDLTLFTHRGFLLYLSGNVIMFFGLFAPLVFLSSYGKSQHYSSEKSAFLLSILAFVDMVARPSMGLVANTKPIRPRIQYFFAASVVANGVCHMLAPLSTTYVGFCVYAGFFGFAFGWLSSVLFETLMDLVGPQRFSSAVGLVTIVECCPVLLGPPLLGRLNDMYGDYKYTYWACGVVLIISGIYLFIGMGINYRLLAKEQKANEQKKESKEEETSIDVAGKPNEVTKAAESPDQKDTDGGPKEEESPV
The experiment in a line: Displacement of [3H]5-[(3-hydroxypropyl)thio]-3-methyl-1-[2-(methyl-t)propyl-2,3-t2]-6-(1-naphthalenylmethyl)-1H-pyrrolo[3,4-d]pyrimidine-2,4(3H,6H)-dione from human MCT1 expressed in INS1 cell membrane. The experiment is classed as cell membranes. (In general: Loss of bound radioactivity is the signal in a displacement assay; it reports binding, not function.)

Experiment [2] addresses T1, Monocarboxylate transporter 1. As to the kind of experiment: Displacement of [3H]5-[(3-hydroxypropyl)thio]-3-methyl-1-[2-(methyl-t)propyl-2,3-t2]-6-(1-naphthalenylmethyl)-1H-pyrrolo[3,4-d]pyrimidine-2,4(3H,6H)-dione from MCT1 in human Jurkat cell membranes.
The subject of experiment [3] is PBMC. The experiment in a line: Antiproliferative activity against human PBMC assessed as inhibition of PMA/ionomycin-stimulated cell proliferation by [3H]thymidine incorporation assay. The experiment is classed as functional, cell-based. A general note: Dividing cells build labelled thymidine or BrdU into new DNA.
Experiment [4] has as its system T-cell. As to the kind of experiment: Reduction in extracellular lactate production in PMA-ionomycin stimulated human T cells after 4 hrs. The format is functional, cell-based.
Experiment [5] concerns T-cell. As to the kind of experiment: Inhibition of DNA synthesis in PMA-ionomycin stimulated human T cells after 4 hrs by [3H]thymidine incorporation assay. The format is functional, cell-based.
Experiment [6] in a line: Antiproliferative activity against human T cells assessed as inhibition of PMA-ionomycin stimulated cell proliferation after 3 days by [3H]thymidine incorporation assay. The format is functional, cell-based.
Experiment [7] concerns T-cell. The experiment in a line: Increase in intracellular lactate production in PMA-ionomycin stimulated human T cells after 4 hrs. The format is functional, cell-based.
Experiment [8] has as its system T-cell. The experiment in a line: Antiproliferative activity against human T cells assessed as inhibition of PMA-ionomycin stimulated cell proliferation by [3H]thymidine incorporation assay. The format is functional, cell-based.
The test system of experiment [9] is T-cell. The experiment in a line: Antiproliferative activity against Lewis rat T cells assessed as inhibition of PMA-ionomycin stimulated cell proliferation by [3H]thymidine incorporation assay. The experiment is classed as functional, cell-based.
Experiment [10] concerns the target T2, Monocarboxylate transporter 1 (Rattus norvegicus) (UniProt P53987).
T2 sequence (whole entry): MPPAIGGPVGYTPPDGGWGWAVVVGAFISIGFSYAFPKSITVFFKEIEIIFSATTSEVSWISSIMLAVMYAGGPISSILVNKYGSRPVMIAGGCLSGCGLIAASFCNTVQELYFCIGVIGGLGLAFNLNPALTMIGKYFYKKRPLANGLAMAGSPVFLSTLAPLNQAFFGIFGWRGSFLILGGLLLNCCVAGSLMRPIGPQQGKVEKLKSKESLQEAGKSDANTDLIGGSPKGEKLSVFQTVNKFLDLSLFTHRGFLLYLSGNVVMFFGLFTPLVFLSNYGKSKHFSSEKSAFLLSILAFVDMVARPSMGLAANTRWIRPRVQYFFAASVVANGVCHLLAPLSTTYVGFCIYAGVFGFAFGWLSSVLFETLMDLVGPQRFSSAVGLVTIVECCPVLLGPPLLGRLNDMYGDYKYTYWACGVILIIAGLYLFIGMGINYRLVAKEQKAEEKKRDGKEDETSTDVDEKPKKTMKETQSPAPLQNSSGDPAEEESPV
The experiment in a line: 6-[[4-azido-3-(iodo-125I)phenyl]methyl]-2,6-dihydro-2-methyl-4-(2-methylpropyl)-1H-pyrrolo[3,4-d]pyridazin-1-one from MCT1 in rat RBC ghost membranes at 1 uM by photoaffinity labeling study. The experiment is classed as cell membranes.

Experiment [11] relates to T-cell. As to the kind of experiment: Inhibition of conversion of [1,2-13C2]glucose into [2,3-13C2]lactate in PMA-ionomycin stimulated human T cells at 10 nM after 6 hrs by GC-MS method. The format is functional, cell-based.
The target in experiment [12] is T3, Monocarboxylate transporter 1 (Homo sapiens) (UniProt P53985).
T3 sequence (whole entry): T1 sequence (P53985 whole entry)
To be noted: INS1, 10 nM.

The test system of experiment [13] is Rattus norvegicus. The experiment in a line: Inhibition of graft-versus-host response-induced lymph node expansion in DA/Lewis recipient rat administered once daily through subcutaneous route. The format is functional. To be noted: sc.
For experiment [14], the target named is T2, Monocarboxylate transporter 1 (Rattus norvegicus). As to the kind of experiment: 6-[[4-azido-3-(iodo-125I)phenyl]methyl]-2,6-dihydro-2-methyl-4-(2-methylpropyl)-1H-pyrrolo[3,4-d]pyridazin-1-one from MCT1 in rat RBC membranes at 50 nM by photoaffinity labeling study. The experiment is classed as cell membranes.

One may read the IC50 as the concentration needed to halve the response being measured. Regarding `CC(C)Cn1c(=O)n(C)c(=O)c2cn(Cc3cccc4ccccc34)cc21`, the Ki is 46.8 nM in experiment [1] (read-out: pKi (converted)) and 15.5 nM in experiment [2]. Moreover, in experiment [3], the half-maximal inhibitory concentration (IC50) was 56.2 nM.
Consider `CC(C)Cn1c(=O)n(C)c(=O)c2c(C(=O)N3CCCC3)c(Cc3ccccc3C(F)(F)F)sc21`, for which the IC50 in experiment [4] is 5.37 nM; in [5], 10 nM; in [6] it was 2.88 nM; in [7], 3.31 nM.
Regarding `CC(C)Cn1c(=O)n(C)c(=O)c2c(SCCCO)n(Cc3cccc4ccccc34)cc21`, the inhibition result in [8], in experiment [3], in [9] and in experiment [10] was “Active” throughout. Further, in experiment [3], the 50% inhibitory concentration (IC50) is 2.45 nM.
For `CC(C)Cn1c(=O)n(C)c(=O)c2c(C(=O)N3CC=CC3)c(Cc3ccccc3C(F)(F)F)sc21`, the Ki was 10.7 nM in experiment [1] (read-out: pKi (converted)) and 3.39 nM in [2]. Besides, the 50% inhibitory concentration (IC50) was 10.2 nM in experiment [4], 11.7 nM in [5], 12 nM in [6] and 4.79 nM in experiment [7].
In general, ED50 refers to the dose that gives a 50% effect, or the effect in half of the subjects. As for `CC(C)Cc1nn(C)c(=O)c2c(SCCCO)n(Cc3cccc4ccccc34)cc12`, the inhibition entry in [11], in experiment [12], in [8], in experiment [3] and in [9] was “Active” throughout. For the same compound, the IC50 in experiment [4] was 0.794 nM; in experiment [5] it was 1.35 nM; in experiment [6], 0.38 nM; in experiment [7], 0.55 nM. Moreover, in experiment [13], the median effective dose (ED50) was 5 mg/kg/day.
Turning to `CC(C)Cn1c(=O)n(C)c(=O)c2c(C(=O)N3CC[C@@H](O)C3)c(Cc3ccnc4ccccc34)sc21`, the 50% inhibitory concentration (IC50) in experiment [4] is 11.5 nM; in [5], 9.77 nM; in experiment [6], 3.24 nM; in [7] it was 4.57 nM.
Take `CC(C)Cn1c(=O)[nH]c(=O)c2c(C(=O)N3CCC3)c(Cc3ccccc3C(F)(F)F)sc21`: the inhibition entry in experiment [14] was “Active”. Besides, the Ki in experiment [2] was > 200 nM. In addition, in experiment [3], the IC50 was > 1000 nM.
Consider `CC(C)Cc1nn(C)c(=O)c2cn(Cc3ccc(N=[N+]=[N-])c([125I])c3)cc12`, for which the Ki in [1] (read-out: Ki) is 23 nM.
As for `CC(C)Cn1c(=O)n(C)c(=O)c2c(SCCCO)c(Cc3ccccc3C(F)(F)F)sc21`, the 50% inhibitory concentration (IC50) in experiment [3] was 0.257 nM.
In the case of `CC(C)Cn1c(=O)n(C)c(=O)c2c(C(=O)N3CC[C@@H](O)C3)c(Cc3c[nH]c4ccccc34)sc21`, the half-inhibitory concentration (IC50) in [4] is 4.27 nM; in experiment [5] it was 3.31 nM; in experiment [6], 0.912 nM; in experiment [7] it was 1.55 nM.
